Experimental data reported in US7238710B2, “EP4 receptor agonist, compositions and methods thereof” (Merck Frosst Canada, Ltd., priority 2003, dated 2007).
Entries after “also recorded” stand apart in the source; their conditions may differ.

Assays:
[1] = test system: ROS 17/2.8 rat osteosarcoma cells; assay: Intracellular cAMP in ROS 17/2.8 cells; format: cell-based
Method: (§1) RCT-1 and RCT-3 are clonal cell lines immortalized by SV-40 large T antigen from cells released from fetal rat calvair by a cmbination collagenase/hyaluronidase digestion. RCT-1 cells, derived from cells released during the first 10 minutes of digestion (fraction I), are cultured in RPMI 1640 medium (BRL) with 10% fetal bovine serum and 0.4 mg/ml G418 (BRL). These cells differentiate and express osteoblastic features upon retinoic acid treatment. RCT-3 cells, immortalized from osteoblast-enriched fraction III cells, are cultured in F-12 medium (BRL) with 5% Fetal bovine serum and 0.4 mg/ml G418. TRAB-11 cells are also immortalized by SV40 large T antigen from adult rat tibia and are cultured in RPMI 1640 medium with 10% FBS and 0.4 mg/ml G418. ROS 17/2.8 rat osteosarcoma cells are cultured in F-12 containing 5% FBS. Osteoblast-enriched (fraction III) primary fetal rat calvaria cells are obtained by collagenase/hyaluronidase digestion of calvariae of 19 day-old rat fetuses. See Rodan et al., Growth stimulation of rat calvaria osteoblastic cells by acidic FGF, Endocrinology, 121, 1919-1923 (1987), which is incorporated by reference herein in its entirety. Cells are released during 30-50 minutes digestion (fraction III) and are cultured in F-12 medium containing 5% FBS. […]

[2] = test system: RCT-3 cells; assay: Intracellular cAMP in RCT-3 cells; format: cell-based, rat
Method: as §1

[3] = test system: TRAB-11 cells; assay: Intracellular cAMP in TRAB-11 cells; format: cell-based, rat
Method: as §1

[4] = test system: RP-1 periosteal cells; assay: EP4 and EP2 mRNA expression (Northern blot) in RP-1 periosteal cells; format: cell-based, rat; conditions: RP-1 cells
Method: RP-1 periosteal cells are spontaneously immortalized from primary cultures of periosteal cells from tibae of 4-week old Sprague-Dawley rats and are cultured in DMEM (BRL, Gaithersburg, Md.) with 10% fetal bovine serum (JRH Biosciences, Lenexa, Kans.).
(§2) Total RNA is extracted from the tibial metaphysis or diaphysis and calvaria using a guanidinium isothiocyanate-phenol-chloroform method after pulverizing frozen bone samples by a tissue homogenizer. See P. Chomczynski et al., Single-step method of RNA isolation by acid guanidium thiocyanate-phenol-chloroform extraction., Analyt Biochem, 162, 156-159 (1987), which is incorporated by reference herein in its entirety. RNA samples ([…]) are separated on 0.9% agarose/formaldehyde gels and transferred onto nylon membranes (Boehringer Mannheim, Germany). Membranes are prehybridized in Hybrisol I (Oncor, Gaithersburg, Md.) and 0.5 mg/ml sonicated salmon sperm DNA (Boehringer) at 42° C. for 3 hours and are hybridized at 42° C. with rat EP2 and mouse EP4 cDNA probes labeled with [^32P]dCTP (Amersham, Buckinghamshire, UK) by random priming using the rediprime kit (Amersham). After hybridization, membranes are washed 4 times in 2×SSC+0.1% SDS at room temperature for a total of 1 hour and once with 0.2×SSC+0.1% SDS at 55° C. for 1 hour and then exposed to Kodak XAR 2 film at −70° C. using intensifying screens. After developing the films, bound probes are removed twice with 0.1% SDS at 80° C. and membranes are hybridized with a human GAPDH (Glyceraldehyde 3-Phosphate Dehydrogenase) cDNA probe (purchased from Clontech, Palo Alto, Calif.) for loading control.
PGE2 enhances its own production via upregulation of cyclooxygenase 2 expression in osteoblasts and in bone tissue thus autoamplifying its own effects. PGE2 also increases the levels of EP4 mRNA. RP-1 cells are immortalized from a primary culture of adult rat tibia periosteum is examined. These cells express osteoblast phenotypic markers upon confluence and form mineralized bone matrix when implanted in nude mice. […]

[5] = test system: RCT-3 cells; assay: EP4 mRNA expression (Northern blot) in RCT-3 cells; format: cell-based, rat
Method: as §1

[6] = test system: bone tissue (tibia, calvaria); assay: EP4 and EP2 mRNA levels in vivo in bone tissue (Northern blot); set-up: species or system rat
Method: (§3) For mRNA localization experiments, 5-week old Sprague-Dawley rats (Charles River) are euthanized by CO2, their tibiae and calvariae are excised, cleaned of soft tissues and frozen immediately in liquid nitrogen. For EP4 regulation experiments, 6-week old rats are given a single injection of either vehicle (7% ethanol in sterile water) or an anabolic dose of PGE2 (Cayman Chemical, Ann Arbor, Mich.), 3-6 mg/kg in the same vehicle) intraperitoneally. Animals are euthanized at several time points post-injection and their tibiae and calvariae, as well as samples from lung and kidney tissues are frozen in liquid nitrogen.
as §2, with “control. […]” for “control.”

[7] = test system: bone marrow cells; assay: In situ hybridization of EP4 mRNA in bone tissue; format: in vivo, rat; conditions: rats, single anabolic dose
Method: as §3
Frozen tibiae are sectioned coronally at […] thickness and sections are mounted on charged slides (Probe On Plus, Fisher Scientific, Springfield, N.J.) and are kept at −70° C. until hybridization. cRNA probes are labeled with ^35S-UTPgS (ICN, Costa Mesa, Calif.) using a Riboprobe II kit (Promega Madison, Wis.). Hybridization is performed overnight at 50° C. […]
In situ hybridization is used in order to localize cells expressing EP4 in bone. In control experiment (vehicle-injected) rats, low expression of EP4 is detected in bone marrow cells. […]

[8] = five-week-old male rats, injected 3-6 mg/Kg

CCCCC[C@H](O)/C=C/[C@H]1[C@H](O)CC(=O)[C@@H]1C/C=C\CCCC(=O)O [PGE2]
effect on intracellular cAMP [1]: no effect | effect on intracellular cAMP [2]: markedly induced | effect on intracellular cAMP [3]: markedly induced | EP2 mRNA [4]: not expressed; also recorded: does not induce | EP4 mRNA levels ([4]; 10^-6 M): rapidly increases | time of peak EP4 mRNA levels after treatment ([4]; 10^-6 M): 2 h | EP4 mRNA levels [5]: no effect | EP4 mRNA levels in the tibial diaphysis [6, 8]: rapidly increased | time of peak EP4 mRNA levels in the tibial diaphysis after injection [6, 8]: 2 h | EP2 mRNA in bone tissue ([6]; rats): does not induce | expression of EP4 in bone marrow cells [7]: increased
